What all share (type): cell-based
One experiment relates to Sci-1. Kind of experiment: MTT cell viability assay. Particulars: Sci-1, GCB DLBCL, RPMI 10% FBS. An excerpt:
(§1) A total of 60 cell lines representative of different cancer types were obtained from the ATCC and grown and maintained in accordance with the provided guidelines. The cell lines represented the following distinct histologies: mantle cell lymphoma (5 lines: JVM13, Rec1, Mino, JVM2, Jeko); germinal center B-cell derived (“GCB”) DLBCL (19 lines: Farage, BJAB, Ly1, Ly2, Ly7, Ly8, Ly19, HBL2, HT, Karpas422, Pfeiffer, RCK8, RL, Sci-1, Ski, SUDHL4, SUDHL7, Toledo, WSU-NHL); primary mediastinal B-cell lymphoma (“PMBL”) (3 lines: K1106, MEDB1, U2940); Burkitt lymphoma (11 lines: Daudi, CA46, EB1, EB2, EB3, Jijoye, Raji, Ramos, Namwala, BL2, BL41); Hodgkin lymphoma (3 lines: RMPI6666, L1236, L428); activated B-cell derived (“ABC”) DLBCL (6 lines: Ly3, HBL1, TMD8, Ly10, Riva, U2932); multiple myeloma (6 lines: U266, SKMM1, RPMI8226, KMS12, IM9, H929); acute myelogenous leukemia (“AML”) (2 lines: U937, KG1); acute lymphoblastic leukemia (“ALL”) (2 lines: Reh, SR); and T-cell lymphoma (3 lines: Molt4, RPMI8402, Jurkat). The cell lines were tested within six months after resuscitation.
(§2) The 3-(4,5-dimethylthiazol-2-yl)-2,5-diphenyltetrazolium bromide (MTT) cell viability assay was used to determine cell viability in response to drug treatment. Five replicates per concentration tested were carried out in serial dilutions with a total of ten concentrations with a 50% reduction in drug concentration per dilution for each plate. A total of 15 μl of MTT reagent was added to each drug-treated well and incubated for three hours in 37° C. Detergent was added to each drug-treated well and incubated overnight at room temperature without exposure to light. Absorbance was measured at 570 nm using a plate reader from Tecan Group. The IC50 concentration was determined using the publicly available ED50 plus v1.0 software program.
A general note: Tetrazolium assays rely on reduction of a dye to a coloured formazan, in cell work by metabolically active cells.

The next experiment has as its system RCK8. Kind of experiment: MTT cell viability assay. The following applies: Homo sapiens; RCK8, GCB DLBCL, RPMI 15% FBS.
Description: as §1, §2

In the next experiment the test system is LY10. Kind of experiment: MTT cell viability assay. Particulars: LY10, ABC DLBCL, OCI.
Description: as §1, §2

The test system of the next experiment is RPMI8402. Kind of experiment: MTT cell viability assay. Particulars: Homo sapiens, RPMI 8402; RPMI8402, T-cell, RPMI 10% FBS.
Description: as §1, §2

The test system of a further experiment is Toledo. Kind of experiment: MTT cell viability assay. Particulars: Homo sapiens, GCB DLBCL, RPMI 10% FBS.
Description: as §1, §2

In the next experiment the test system is H929. Kind of experiment: MTT cell viability assay. Particulars: Homo sapiens, NCI-H929; H929, Multiple Myeloma, RPMI 10% FBS.
Description: as §1, §2

The next experiment relates to U266. Kind of experiment: MTT cell viability assay. Particulars: Homo sapiens, U-266; U266, Multiple Myeloma, RPMI 15% FBS.
Description: as §1, §2

The test system of another experiment is L1236. Kind of experiment: MTT cell viability assay. The following applies: L-1236; L1236, Hodgkin Lymphoma, RPMI 10% FBS.
Description: as §1, §2

A further experiment concerns SUDHL4. Kind of experiment: MTT cell viability assay. The following applies: Homo sapiens, SU-DHL-4; SUDHL4, GCB DLBCL, RPMI 15% FBS.
Description: as §1, §2

For another experiment, the system named is Reh. Kind of experiment: MTT cell viability assay. The following applies: Homo sapiens, ALL, RPMI 10% FBS.
Description: as §1, §2

The next experiment has as its system Jijoye. Kind of experiment: MTT cell viability assay. Particulars: Burkitt Lymphoma, RPMI 10% FBS.
Description: as §1, §2

For a further experiment, the system named is EB3. Kind of experiment: MTT cell viability assay. The following applies: Homo sapiens, EB-3; EB3, Burkitt Lymphoma, RPMI 10% FBS.
Description: as §1, §2

A further experiment concerns CA46. Kind of experiment: MTT cell viability assay. Particulars: Homo sapiens; CA46, Burkitt Lymphoma, RPMI 10% FBS.
Description: as §1, §2

The test system of another experiment is Pfeiffer. Kind of experiment: MTT cell viability assay. The following applies: Homo sapiens, GCB DLBCL, RPMI 10% FBS.
Description: as §1, §2

Another experiment concerns Mino. Kind of experiment: MTT cell viability assay. The following applies: Homo sapiens, MantleCellLymphoma, RPMI 10% FBS.
Description: as §1, §2

The test system of another experiment is LY1. Kind of experiment: MTT cell viability assay. The following applies: LY1, GCB DLBCL, OCI.
Description: as §1, §2

Another experiment concerns LY7. Kind of experiment: MTT cell viability assay. The following applies: LY7, GCB DLBCL, OCI.
Description: as §1, §2

The subject of a further experiment is U2932. Kind of experiment: MTT cell viability assay. Particulars: Homo sapiens; U2932, ABC DLBCL, RPMI 10% FBS.
Description: as §1, §2

Another experiment concerns Raji. Kind of experiment: MTT cell viability assay. Particulars: Homo sapiens, Burkitt Lymphoma, RPMI 10% FBS.
Description: as §1, §2

In experiment [1] the test system is Sixty cell lines representing blood cancer histologies. Kind of experiment: Sensitivity to PI3K inhibition in sixty cancer cell lines (MTT). Particulars: BKM120 and BEZ235 in all 60 cell lines; BGT226 in 31 cell lines; read-out: observed IC50s, range over the cell lines.
Description: as §1
as §2, with “program. […]” for “program.”

With `Nc1cc(C(F)(F)F)c(-c2cc(N3CCOCC3)nc(N3CCOCC3)n2)cn1` [BKM120], the IC50 came out at 985 nM in the experiment with Sci-1; 3260 nM with RCK8; 1520 nM with LY10; 1220 nM with RPMI8402; 2010 nM in the experiment on Toledo; 1200 nM in the experiment with H929. Also, the IC50 in the experiment with U266 was 5600 nM; with L1236 it was 1120 nM; with SUDHL4, 1110 nM; with Reh, 1020 nM; with Jijoye it was 2740 nM; with EB3, 655 nM. In addition, the IC50 in the experiment on CA46 is 729 nM; in the experiment on Pfeiffer, 1040 nM; in the experiment on Mino, 460 nM; in the experiment with LY1 it was 382 nM; in the experiment on LY7, 2550 nM; in the experiment on U2932, 5360 nM. In addition, the IC50 was 2310 nM in the experiment on Raji and 200 to 7800 nM in experiment [1].

Take `Cn1c(=O)n(-c2ccc(C(C)(C)C#N)cc2)c2c3cc(-c4cnc5ccccc5c4)ccc3ncc21` [BEZ235]: the IC50 was 35 nM with Sci-1; 20 nM with RCK8; 9390 nM in the experiment with LY10; 220 nM with RPMI8402; 20.4 nM with Toledo; 113 nM in the experiment on H929. Moreover, the IC50 in the experiment with U266 was 167 nM; in the experiment on L1236 it was 60 nM; with SUDHL4 it was 60.8 nM; in the experiment with Reh it was 484 nM; with Jijoye, 140 nM; in the experiment on EB3, 36.8 nM. The IC50 in the experiment on CA46 is 28.4 nM; in the experiment on Pfeiffer, 17.1 nM; in the experiment with Mino, 60.8 nM; in the experiment with LY1, 16.4 nM; in the experiment on LY7, 257 nM; in the experiment with U2932 it was 96.1 nM. Besides, the IC50 in the experiment on Raji was 300 nM; in experiment [1], 10 to 9000 nM.

In the case of `COc1ccc(-c2ccc3ncc4c(c3c2)n(-c2ccc(N3CCNCC3)c(C(F)(F)F)c2)c(=O)n4C)cn1` [BGT226], the IC50 in the experiment on Sci-1 is 24.5 nM; with RCK8 it was 21.8 nM; in the experiment with H929 it was 3.6 nM; in the experiment with L1236 it was 12.4 nM; in the experiment on SUDHL4 it was 51.3 nM; with Reh it was 13.4 nM. For the same molecule, the IC50 with Jijoye was 13.1 nM; in the experiment with EB3 it was 44.5 nM; in the experiment on CA46 it was 27.6 nM; in the experiment on Pfeiffer, 20.8 nM; in the experiment on Mino, 10.5 nM; with LY7 it was 20.4 nM. In addition, the IC50 in the experiment on Raji is 79.8 nM; in [1] it was 3 to 200 nM.

These data come from patent US9861625B2, “Methods and compositions for treating cancer through inhibition of PI3K” (Duke University, priority 2014, dated 2018).
